# Reference: ChEMBL document CHEMBL1139449, “Synthesis and inhibitory activity against COX-2 catalyzed prostaglandin production of chrysin derivatives” (Bioorg Med Chem Lett, 2004)
# Columns and labels:
# [1] = tested on: RAW264.7; assay: Evaluated for inhibition of COX-2 catalyzed PGE-2 production from LPS induced RAW 264.7 cells; Range: 0.1-0.5 uM; type: functional, cell-based; settings: Mus musculus
# [2] = tested on: RAW264.7; assay: Evaluated for inhibition of COX-2 catalyzed PGE-2 production from LPS induced RAW 264.7 cells; type: functional, cell-based; settings: Mus musculus
Compound,IC50 [1] [nM],IC50 [2] [nM]
COc1cccc2oc(-c3ccc(Cl)c(Cl)c3)cc(=O)c12,< 500,–
CS(=O)(=O)Nc1ccc([N+](=O)[O-])cc1OC1CCCCC1 [NS-398],–,500
COc1ccc2c(=O)cc(-c3ccc(Cl)cc3)oc2c1,–,500
O=c1cc(-c2ccc(Cl)c(Cl)c2)oc2cc(O)ccc12,< 500,–
COc1ccc2c(=O)cc(-c3ccc(Cl)c(Cl)c3)oc2c1,< 500,–
O=c1cc(-c2ccccc2)oc2ccccc12 [FLAVONE],–,500
COc1c(O)cc(O)c2c(=O)cc(-c3ccccc3)oc12 [WOGONIN],–,1080
